Results on three molecules are retold here after patent US9828644B2, “BACH2 repression in cells” (UNIVERSITE LIBRE DE BRUXELLES, priority 2010, dated 2017).

The subject of assay [1] is shRNA CTRL Jurkat clones (E6.1 Jurkat T cell line). Put plainly: Apoptosis assay (annexin V-FITC and PI staining, flow cytometry) in shRNA CTRL Jurkat clones. It counts as cell-based. Particulars: for Apoptosis response % shRNACTRL: shRNA CTRL Jurkat clones. How it is done: (§1) The apoptosis was assessed by flow cytometry. Columns with standard deviation represent the mean percentage of 3 experiments.
(§2) Histograms of gated cells represent early and late apoptotic populations. As shown in the left panel, 42% of treated shRNA CTRL cells are in apoptosis whereas 18% of apoptotic shRNA BACH2 cells are observed after BACH2 repression
(§3) The inventors firstly added FAS ligand (FASLG/TNFSF6) or PMA (phorbol myristic acetate) (see Table 2) to control or to cells transfected with BACH2 sh RNA. They further treated control and transfected cells (with BACH2 sh RNA) by a 18-hours stimulation with anti-CD2, anti-CD28 or anti-CD3 antibodies.

Assay [2] has as its system shRNA BACH2 Jurkat clones (E6.1 Jurkat T cell line). Put plainly: Apoptosis assay (annexin V-FITC and PI staining, flow cytometry) in shRNA BACH2 Jurkat clones. The conditions noted are these: for Apoptosis response % shRNABACH2: shRNA BACH2 Jurkat clones; for Apoptosis response Difference %: shRNACTRL minus shRNABACH2 Jurkat clones. It is filed as cell-based. The procedure:
as §1, §2, §3
For orientation: Flow cytometry measures light scatter and fluorescence of single cells or particles in a stream.

Assay [3] has as its system Fas L mRNA in CD4+ cells from a patient having a hemizigous deletion of BACH2 gene. As to the kind of experiment: Fas L mRNA abundance in CD4+ cells ex vivo in function of etoposide treatment. The conditions noted are these: CD4+ cells having lost one copy of BACH2, compared with control CD4+ cells from a healthy donor. It is filed as cell-based, human. The source says: This observation is further confirmed by the ex-vivo analysis shown at FIG. 8, wherein, clearly, CD4+ T cells having hemizigous BACH2 fail to express FasL mRNA.

`CCCCCCCCCCCCCC(=O)O[C@@H]1[C@@H](C)[C@@]2(O)[C@@H](C=C(CO)C[C@]3(O)C(=O)C(C)=C[C@@H]23)[C@@H]2C(C)(C)[C@]12OC(C)=O` [PMA, phorbol myristic acetate]: the “Apoptosis response % shRNACTRL” value in assay [1] is listed as 16.17 (+/−2.26) %. For the same molecule, in assay [2], the “Apoptosis response % shRNABACH2” value is 16.7 (+/−6.12) % and the “Apoptosis response Difference %” value is −0.5%.

For the molecule `COc1cc([C@@H]2c3cc4c(cc3[C@@H](O[C@@H]3O[C@@H]5CO[C@@H](C)O[C@H]5[C@H](O)[C@H]3O)[C@H]3COC(=O)[C@H]23)OCO4)cc(OC)c1O` [Etoposide], in assay [1] (clone shRNA CTRL-A, 1 μg/ml etoposide, 18 hrs), the “cells in apoptosis (early and late apoptotic populations)” value is given as 42%. For the same molecule, the “Apoptosis response % shRNACTRL” value in assay [1] was 41.2 (+/−4.94) %. Moreover, the “reduction in the number of apoptotic cells (AnnexinV+) in the BACH2-repressed clone” value in assay [2] (clone shRNA BACH2-C versus shRNA control-A, 1 μg/ml of etoposide) is given as “two-fold reduction”. The “apoptotic cells (early and late apoptotic populations)” value in assay [2] (clone shRNA BACH2-C, 1 μg/ml etoposide, 18 hrs) turned out to be 18%. Further, in assay [2], the “Apoptosis response % shRNABACH2” value is on record as 18.27 (+/−2.71) % and the “Apoptosis response Difference %” value came to 23%. Besides, in assay [3], the “FasL mRNA production upon etoposide exposure” value is “fails to produce FasL”.

B1: Fas-L: FAS ligand (FASLG/TNFSF6) added to Jurkat clones to trigger apoptosis (protein, UniProt P48023 130-281, looked up)
Tumor necrosis factor ligand …: QIGHPSPPPEKKELRKVAHLTGKSNSRSMPLEWEDTYGIVLLSGVKYKKGGLVINETGLYFVYSKVYFRGQSCNNLPLSHKVYMRNSKYPQDLVMMEGKMMSYCTTGQMWARSSYLGAVFNLTSADHLYVNVSELSLVNFEESQTFFGLYKL
As to B1, the “Apoptosis response % shRNACTRL” value in assay [1] is given as 33.18 (+/−2.32) %. Also, in assay [2], the “Apoptosis response % shRNABACH2” value was 34.51 (+/−3.75) % and the “Apoptosis response Difference %” value was −1.3%.
